Among the data in patent US20090270371A1, “QUINOLINE DERIVATIVES USEFUL IN THE TREATMENT OF MGLUR5 RECEPTOR-MEDIATED DISORDERS” (priority 2005, published 2009) are Ki values, retold here.

T1 sequence (P31424 21-1203): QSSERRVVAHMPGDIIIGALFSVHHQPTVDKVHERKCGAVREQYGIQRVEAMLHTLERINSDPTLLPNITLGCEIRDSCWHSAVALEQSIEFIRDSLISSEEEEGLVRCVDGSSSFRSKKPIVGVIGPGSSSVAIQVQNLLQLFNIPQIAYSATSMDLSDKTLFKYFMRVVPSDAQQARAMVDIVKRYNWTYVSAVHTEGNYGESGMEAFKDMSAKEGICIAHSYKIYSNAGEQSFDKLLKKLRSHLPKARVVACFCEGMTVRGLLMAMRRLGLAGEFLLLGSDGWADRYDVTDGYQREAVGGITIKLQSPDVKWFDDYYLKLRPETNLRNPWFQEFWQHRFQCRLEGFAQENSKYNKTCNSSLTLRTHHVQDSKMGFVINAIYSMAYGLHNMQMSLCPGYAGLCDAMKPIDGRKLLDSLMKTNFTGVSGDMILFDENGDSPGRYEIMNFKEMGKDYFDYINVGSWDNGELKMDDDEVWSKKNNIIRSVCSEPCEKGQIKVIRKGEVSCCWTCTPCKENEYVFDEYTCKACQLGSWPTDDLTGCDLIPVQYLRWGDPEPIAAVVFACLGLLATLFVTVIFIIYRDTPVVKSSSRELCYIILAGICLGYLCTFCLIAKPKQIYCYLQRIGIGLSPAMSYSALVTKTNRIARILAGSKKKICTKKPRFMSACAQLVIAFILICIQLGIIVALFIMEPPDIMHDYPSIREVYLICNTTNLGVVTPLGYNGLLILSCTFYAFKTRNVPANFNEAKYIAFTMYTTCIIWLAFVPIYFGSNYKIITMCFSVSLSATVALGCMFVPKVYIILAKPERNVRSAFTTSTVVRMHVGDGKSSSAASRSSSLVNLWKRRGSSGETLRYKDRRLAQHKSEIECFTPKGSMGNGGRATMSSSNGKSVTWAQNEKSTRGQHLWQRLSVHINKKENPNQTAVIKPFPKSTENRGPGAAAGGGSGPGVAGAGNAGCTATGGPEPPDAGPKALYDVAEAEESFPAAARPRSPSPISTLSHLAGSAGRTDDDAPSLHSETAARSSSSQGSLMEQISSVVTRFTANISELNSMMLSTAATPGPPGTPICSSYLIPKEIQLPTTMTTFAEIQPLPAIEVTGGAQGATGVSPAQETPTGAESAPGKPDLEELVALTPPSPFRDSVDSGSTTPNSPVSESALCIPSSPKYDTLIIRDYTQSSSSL

The experiment addresses T1, rat mGluR5 receptors (Rattus norvegicus, UniProt P31424).
T1 construct: rat cerebro-cortical membrane preparation was used; from tissue; host or cells: rat cerebral cortex membranes
As to the kind of experiment: mGluR5 receptor binding test, rat cerebro-cortical membrane preparation, [3H]-M-MPEP. To be noted: affinity for rat mGluR5 receptors; [3H]-M-MPEP (2 nM) radioligand. The procedure, abridged: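 Radioligand binding used rat cerebro-cortical membranes with 2 nM [3H]-M-MPEP. Nonspecific binding was defined with 10 μM M-MPEP. The method follows a modification of a published procedure.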
On to `CCN(CC)c1c(S(=O)(=O)c2ccc(C)cc2)cnc2ccc(OC)cc12` [Compound 110], for which the inhibition constant Ki was > 500 nM.
The same measure for `Cc1ccc2ncc(S(=O)(=O)c3ccc(C)c(F)c3)c(N3CCOCC3)c2c1` [Compound 267]: > 500 nM.
With `CC1CCN(c2c(S(=O)(=O)c3cc(F)cc(F)c3)cnc3ccc(Cl)cc23)CC1` [Compound 209], the inhibitory constant (Ki) is < 200 nM.
Next, `Cc1ccc(S(=O)(=O)c2cnc3cc4c(cc3c2N2CCOCC2)OCCO4)cc1` [Compound 94]: > 500 nM.
Take `COc1ccc(Nc2c(S(=O)(=O)c3ccc(C)cc3)cnc3ccccc23)cc1OC` [Compound 24]: the Ki is > 500 nM.
As for `CC1CCN(c2c(S(=O)(=O)c3ccc(Cl)c(Cl)c3)cnc3ccc(F)cc23)CC1` [Compound 149], the inhibition constant (Ki) was < 200 nM.
Next, `CC1CCN(c2c(S(=O)(=O)c3cccc(C#N)c3)cnc3ccc(Cl)cc23)CC1` [Compound 210]: < 200 nM; `CC1CCN(c2c(S(=O)(=O)c3ccc(F)c(F)c3)cnc3cc(F)ccc23)CC1` [Compound 186]: < 200 nM; `CCN1CCN(c2c(S(=O)(=O)c3ccc(F)cc3)cnc3ccc(Cl)cc23)CC1` [Compound 10]: > 500 nM.
With `Cc1ccc(S(=O)(=O)c2cnc3ccccc3c2N2CCC(C)CC2)cc1C` [Compound 3, 3-(3,4-Dimethyl-benzenesulfonyl)-4-(4-methyl-piperidin-1-yl)-quinoline], the inhibition constant Ki is < 200 nM.
On to `COc1ccc(S(=O)(=O)c2cnc3ccc(OC)cc3c2N2CCCCC2)cc1` [Compound 44], for which the inhibition constant (Ki) was > 500 nM.
For the compound `CC1CCN(c2c(S(=O)(=O)c3ccc(F)cc3)cnc3c(F)cccc23)CC1` [Compound 228], the Ki is > 500 nM.
Regarding `COc1ccc2ncc(S(=O)(=O)c3ccc(C)cc3)c(NCc3ccccc3)c2c1` [Compound 87], the Ki was > 500 nM.
Consider `Cc1ccc(S(=O)(=O)c2cnc3cc(Cl)ccc3c2N2CCC(C)CC2)cc1` [Compound 191], for which the Ki is < 200 nM.
For `Cc1ccc(S(=O)(=O)c2cnc3ccc(F)cc3c2N2CCCCCC2)cc1` [Compound 33], the Ki was > 500 nM.
Consider `CC1CCN(c2c(S(=O)(=O)c3ccc(Cl)c(Cl)c3)cnc3cc(F)ccc23)CC1` [Compound 176], for which the Ki is < 200 nM.
Regarding `O=S(=O)(c1ccc(Cl)cc1)c1cnc2ccccc2c1N1CCCCCC1` [Compound 34], the Ki is 200 to 500 nM.
The same measure for `Cc1ccc2ncc(S(=O)(=O)c3cccc(F)c3)c(N3CCOCC3)c2c1` [Compound 259]: > 500 nM.
As to `COc1ccc(S(=O)(=O)c2cnc3ccc(F)cc3c2N2CCC(C)CC2)cc1` [Compound 142], the inhibition constant (Ki) was < 200 nM.
The same measure for `Cc1ccc(S(=O)(=O)c2cnc3ccc(F)cc3c2N2CCC(C)CC2)cc1C` [Compound 146]: < 200 nM; for `Cc1ccc(S(=O)(=O)c2cnc3ccccc3c2N2CCCC(C)C2)cc1` (stereo not shown) [Compound 4, 3-(4-Methyl-benzenesulfonyl)-4-(3-methyl-piperidin-1-yl)-quinoline]: < 200 nM.
The same measure for `Cc1ccc(S(=O)(=O)c2cnc3ccc(C)cc3c2Nc2ccc(Cl)cc2)cc1` [Compound 26]: > 500 nM.
